Data: patent publication US20240279214A1, “ALPHA4 BETA7 INEGRIN ANTAGONISTS AND USES THEREOF” (XinThera, Inc., priority 2022, published 2024)

Target: T1, a4b7 integrin interaction with MadCAM-1 (Homo sapiens, UniProt P13612+P26010)
T1 construct: capture of a4b7 integrin expressing cells, RPMI8866; endogenous in cells; host or cells: RPMI8866
T1 sequence (P13612 34-1032): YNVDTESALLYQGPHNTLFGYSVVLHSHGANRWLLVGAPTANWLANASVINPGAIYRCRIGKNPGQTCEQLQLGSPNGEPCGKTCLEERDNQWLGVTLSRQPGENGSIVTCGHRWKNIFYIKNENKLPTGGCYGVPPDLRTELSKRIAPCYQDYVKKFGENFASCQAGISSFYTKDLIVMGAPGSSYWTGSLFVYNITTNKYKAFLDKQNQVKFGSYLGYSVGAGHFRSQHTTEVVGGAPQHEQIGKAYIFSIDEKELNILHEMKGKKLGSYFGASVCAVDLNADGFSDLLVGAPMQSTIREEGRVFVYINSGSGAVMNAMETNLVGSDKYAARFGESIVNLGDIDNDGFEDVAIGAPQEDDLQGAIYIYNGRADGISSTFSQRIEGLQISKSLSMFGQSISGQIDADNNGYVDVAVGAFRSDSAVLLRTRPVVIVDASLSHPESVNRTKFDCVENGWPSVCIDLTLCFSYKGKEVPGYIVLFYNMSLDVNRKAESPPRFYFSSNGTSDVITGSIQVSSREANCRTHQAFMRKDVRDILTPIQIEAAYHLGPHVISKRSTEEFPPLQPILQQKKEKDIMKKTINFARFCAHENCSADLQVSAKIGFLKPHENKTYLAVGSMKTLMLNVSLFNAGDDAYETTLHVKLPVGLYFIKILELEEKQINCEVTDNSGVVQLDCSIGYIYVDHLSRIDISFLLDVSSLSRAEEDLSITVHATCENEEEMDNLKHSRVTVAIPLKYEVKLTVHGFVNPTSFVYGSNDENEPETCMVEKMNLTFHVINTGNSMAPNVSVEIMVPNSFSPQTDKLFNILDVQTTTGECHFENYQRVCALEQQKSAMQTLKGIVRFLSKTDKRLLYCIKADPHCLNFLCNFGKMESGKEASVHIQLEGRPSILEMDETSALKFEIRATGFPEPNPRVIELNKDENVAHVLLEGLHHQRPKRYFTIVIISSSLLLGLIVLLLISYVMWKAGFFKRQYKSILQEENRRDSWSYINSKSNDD
T1 sequence (P26010 20-798): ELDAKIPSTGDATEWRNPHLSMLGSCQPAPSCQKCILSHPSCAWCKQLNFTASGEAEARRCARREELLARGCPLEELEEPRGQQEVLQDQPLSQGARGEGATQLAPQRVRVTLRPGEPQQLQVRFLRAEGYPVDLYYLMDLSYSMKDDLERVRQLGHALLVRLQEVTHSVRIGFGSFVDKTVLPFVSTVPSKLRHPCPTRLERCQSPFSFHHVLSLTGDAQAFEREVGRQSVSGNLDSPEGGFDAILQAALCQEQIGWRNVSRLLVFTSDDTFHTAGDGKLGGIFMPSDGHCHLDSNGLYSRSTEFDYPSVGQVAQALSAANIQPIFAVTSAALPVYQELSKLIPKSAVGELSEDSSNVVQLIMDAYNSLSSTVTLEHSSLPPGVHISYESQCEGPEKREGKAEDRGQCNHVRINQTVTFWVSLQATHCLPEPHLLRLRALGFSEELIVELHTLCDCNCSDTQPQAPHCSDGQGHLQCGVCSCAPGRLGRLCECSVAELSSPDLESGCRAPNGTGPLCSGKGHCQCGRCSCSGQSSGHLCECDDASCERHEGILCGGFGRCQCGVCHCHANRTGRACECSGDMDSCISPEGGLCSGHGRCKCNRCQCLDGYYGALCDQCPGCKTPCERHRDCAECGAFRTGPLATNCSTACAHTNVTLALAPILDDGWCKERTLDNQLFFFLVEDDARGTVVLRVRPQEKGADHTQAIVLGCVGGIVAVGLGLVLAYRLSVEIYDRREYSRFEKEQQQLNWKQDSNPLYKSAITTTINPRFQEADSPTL
Test: a4b7 Cell Capture Assay (RPMI8866 cells on MAdCAM-1 Fc coated plates)
Type: cell-based
Settings: 50% human serum, 1 mM MgCl2, 1 hour incubation, CellTiter-Glo luminescence, read-out: a4B7 cell capture assay RMPI8866-MadCAM EC50
How it was run: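 RPMI8866 cells (1.0×10^6 cells/mL) in 1 mM MgCl2, 25 mM HEPES, 50% human serum were added to plates coated with human MAdCAM-1–IgG1 Fc (1.0 μg/mL) and exposed to compound (9-point, 0.08–1000 nM, 0.1% DMSO) for 1 h at 37 °C. Bound cells were read by CellTiter-Glo luminescence. IC50 came from 4-parameter fit of normalized % inhibition.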

EC50 | SMILES
0.97 nM | Cc1cc2cc(c1F)[C@H](CC(=O)O)NC(=O)[C@@H](n1cc(CCN3CC(F)C3)c(C(F)(F)F)cc1=O)c1cc(ccc1F)Oc1cc(N3C4CCC3COC4)cc(C)c1-2 (relative stereo) [Example 56, [(14R*,17S)-12,19-difluoro-14-{5-[2-(3-fluoroazetidin-1-yl)ethyl]-2-oxo-4-(trifluoromethyl)pyridin-1-yl}-3,20-dimethyl-5-{3-oxa-8-azabicyclo[3.2.1]octan-8-yl}-15-oxo-8-oxa-16-azatetracyclo[16.3.1.1^{9,13}.0^{2,7}]tricosa-1(22),2(7),3,5,9,11,13(23),18,20-nonaen-17-yl]acetic acid]
39 nM | Cc1cc2cc(c1F)[C@H](CC(=O)O)NC(=O)[C@@H](n1ccc(C(F)(F)F)c(Cl)c1=O)c1cc(ccc1F)Oc1cccc(C)c1-2 (single isomer, unassigned) [Example 76]
77 nM | Cc1cc2cc(c1F)[C@H](CC(=O)O)NC(=O)[C@@H](n1cc(CCN3CC(F)C3)c(C(F)(F)F)cc1=O)c1cc(ccc1F)COc1cc(C(F)(F)F)cc(C)c1-2 (relative stereo) [Example 65, [(15R*,18S)-13,20-difluoro-15-{5-[2-(3-fluoroazetidin-1-yl)ethyl]-2-oxo-4-(trifluoromethyl)pyridin-1-yl}-3,21-dimethyl-16-oxo-5-(trifluoromethyl)-8-oxa-17-azatetracyclo[17.3.1.1^{10,14}.0^{2,7}]tetracosa-1(23),2(7),3,5,10,12,14(24),19,21-nonaen-18-yl]acetic acid]
> 100 nM | Cc1cc2cc(c1F)[C@H](CC(=O)O)NC(=O)[C@@H](n1cc(CCN3CC(F)C3)c(C(F)(F)F)cc1=O)c1cc(ccc1F)COc1nn(CC3CC3)cc1-2 (single isomer, unassigned) [Example 70]
1.3 nM | Cc1cc2cc(c1F)[C@H](CC(=O)O)NC(=O)[C@@H](n1cc(CCN3CC(F)C3)c(C(F)(F)F)cc1=O)c1cc(cc(Cl)c1F)Oc1cccc(C)c1-2 [Example 38, [(14S,17S)-11-chloro-12,19-difluoro-14-{5-[2-(3-fluoroazetidin-1-yl)ethyl]-2-oxo-4-(trifluoromethyl)pyridin-1-yl}-3,20-dimethyl-15-oxo-8-oxa-16-azatetracyclo[16.3.1.1^{9,13}.0^{2,7}]tricosa-1(22),2(7),3,5,9,11,13(23),18,20-nonaen-17-yl]acetic acid]
14 nM | Cc1cccc2c1-c1cc(c(F)c(C(F)(F)F)c1)[C@H](CC(=O)O)NC(=O)[C@@H](n1cc(CCN(C)C)c(C(F)(F)F)cc1=O)c1cccc(c1)O2 (relative stereo) [Example 16, [(14R*,17S)-14-{5-[2-(dimethylamino)ethyl]-2-oxo-4-(trifluoromethyl)pyridin-1-yl}-19-fluoro-3-methyl-15-oxo-20-(trifluoromethyl)-8-oxa-16-azatetracyclo[16.3.1.1^{9,13}.0^{2,7}]tricosa-1(22),2(7),3,5,9,11,13(23),18,20-nonaen-17-yl]acetic acid]
23 nM | Cc1cc2cc(c1F)[C@H](CC(=O)O)NC(=O)[C@@H](n1cc(CCN3CC(F)C3)c(C(F)(F)F)cc1=O)c1cc(Cl)cc(c1)Oc1ccc(F)c(C)c1-2 (relative stereo) [Example 34, [(14R*,17S)-11-chloro-4,19-difluoro-14-{5-[2-(3-fluoroazetidin-1-yl)ethyl]-2-oxo-4-(trifluoromethyl)pyridin-1-yl}-3,20-dimethyl-15-oxo-8-oxa-16-azatetracyclo[16.3.1.1^{9,13}.0^{2,7}]tricosa-1(22),2(7),3,5,9,11,13(23),18,20-nonaen-17-yl]acetic acid]
11 nM | Cc1cc2cc(c1F)[C@H](CC(=O)O)NC(=O)[C@@H](n1cc(CCN3CC(F)(F)C3)c(C(F)(F)F)cc1=O)c1cc(ccc1F)COc1cccc(C)c1-2 (single isomer, unassigned) [Example 53]
10 nM | Cc1cc2cc(c1F)[C@H](CC(=O)O)NC(=O)[C@@H](n1cc(CCN3CCC(F)(F)CC3)c(C(F)(F)F)cc1=O)c1cc(ccc1F)Oc1cccc(C)c1-2 (single isomer, unassigned) [Example 63]
> 100 nM | Cc1cccc2c1-c1cc(c(C)s1)[C@H](CC(=O)O)NC(=O)[C@@H](n1cc(CCN3CC(F)C3)c(C(F)(F)F)cc1=O)c1cc(ccc1F)CO2 (single isomer, unassigned) [Example 75]
990 nM | Cc1ccc2c(c1C)-c1cc(C)c(F)c(c1)[C@H](CC(=O)O)NC(=O)[C@@H](n1cc(CCN3CC(F)C3)c(C(F)(F)F)cc1=O)c1cc(ccc1F)CO2 (relative stereo) [Example 51, [(15R*,18S)-13,20-difluoro-15-{5-[2-(3-fluoroazetidin-1-yl)ethyl]-2-oxo-4-(trifluoromethyl)pyridin-1-yl}-3,4,21-trimethyl-16-oxo-8-oxa-17-azatetracyclo[17.3.1.1^{10,14}.0^{2,7}]tetracosa-1(23),2(7),3,5,10,12,14(24),19,21-nonaen-18-yl]acetic acid]
0.07 nM | Cc1cc2cc(c1F)[C@H](CC(=O)O)NC(=O)[C@@H](n1cc(CCN(C)C)c(C(F)(F)F)cc1=O)c1cc(ccc1F)Oc1cccc(C)c1-2 (relative stereo) [Example 29, [(14R*,17S)-14-{5-[2-(dimethylamino)ethyl]-2-oxo-4-(trifluoromethyl)pyridin-1-yl}-12,19-difluoro-3,20-dimethyl-15-oxo-8-oxa-16-azatetracyclo[16.3.1.1^{9,13}.0^{2,7}]tricosa-1(22),2(7),3,5,9,11,13(23),18,20-nonaen-17-yl]acetic acid]
0.5 nM | Cc1cc2cc(c1F)[C@H](CC(=O)O)NC(=O)[C@@H](n1cc(CCN3CC(F)C3)c(C(F)(F)F)cc1=O)c1cc(ccc1F)Oc1cc(C(C)(C)O)cc(C)c1-2 (single isomer, unassigned) [Example 48]
20 nM | Cc1ccc2cc1[C@H](n1cc(CCN3CC(F)C3)c(C(F)(F)F)cc1=O)C(=O)N[C@@H](CC(=O)O)c1cc(cc(C)c1F)-c1c(C)cccc1OC2 (single isomer, unassigned) [Example 74]
> 1000 nM | O=C(O)C[C@@H]1NC(=O)[C@@H](n2cc(CCN3CC(F)C3)c(C(F)(F)F)cc2=O)c2cccc(c2)Oc2cccc(C(F)(F)F)c2-c2cc1c(F)c(C(F)(F)F)c2 (relative stereo) [Example 13, [(14R*,17S)-19-fluoro-14-{5-[2-(3-fluoroazetidin-1-yl)ethyl]-2-oxo-4-(trifluoromethyl)pyridin-1-yl}-15-oxo-3,20-bis(trifluoromethyl)-8-oxa-16-azatetracyclo[16.3.1.1^{9,13}.0^{2,7}]tricosa-1(22),2(7),3,5,9,11,13(23),18,20-nonaen-17-yl]acetic acid]
> 100 nM | Cc1cc2cc(c1F)[C@H](CC(=O)O)NC(=O)[C@@H](n1cc(CCN3CC(F)C3)c(C(F)(F)F)cc1=O)c1cc(ccc1F)COc1ccc(F)cc1-2 (single isomer, unassigned) [Example 50]
0.079 nM | Cc1cc2cc(c1F)[C@H](CC(=O)O)NC(=O)[C@@H](n1cc(CCCN3CCC3)c(C(F)(F)F)cc1=O)c1cc(ccc1F)Oc1cccc(C)c1-2 (single isomer, unassigned) [Example 21]
